In brackets after ≈: the same amount, converted by molar mass.
Legend:
[1] = Physical stability: equilibration of suspension, XRPD of isolated solid; format: physicochemical; conditions: based upon the equilibration experiments
Description: Samples of example 1 free base which are a mixture of monohydrate and trihydrate were suspended in an organic solvent water mixture of water and equilibrated for about 4 days at 25°. […] After equilibration the suspension was filtered and the solid material isolated and analysed by XRPD.

[2] = Blood levels and pharmacokinetics after oral administration of compound of example No. 1; format: in vivo, Beagle dogs; conditions: example 3 main component in blood after around an hour
Description: A single dose of the compound of example 1 (3.0 mg/kg) was administered p.o. to 3 male Beagle dogs. Compound 1 was dosed as an aqueous suspension of the crystalline monohydrate form in Methylcellulose (0.5%): Tween 80 (1%) (90:10). Blood was taken in regular intervals by venipuncture, and the samples were analyzed for a period of up to 24 hours. The compounds of the examples 1, 2, and 3 were quantitatively assessed over time, and the results are tabulated below:
Key pharmacokinetic parameters (mean values±standard deviations (n=3) for 1, 2 and 3 after oral dosing of example No. 1.

[3] = Chemical stability of amorphous and crystalline example No. 1 (solid state); format: physicochemical; conditions: for Purity: 1 week; for Initial Purity: before exposure
[4] = Chemical stability of the trihydrate of example 1; format: physicochemical
[5] = Solubility in simulated gastric and intestinal fluids; format: physicochemical; conditions: for Final pH: solubility test
Text: Solubility of compound Example No. 1 in simulated gastric and in simulated intestinal fluids at room temperature
Solubility of compound Example No. 3 (free form/acetate salt form) in simulated gastric fluids: […]

[6] = test system: Bone marrow cells from CBA mice; test: Bone marrow cell proliferation (BM) assay; format: cell-based; conditions: Mus musculus, 3H-thymidine incorporation, four days incubation
Description: Bone marrow cells from CBA mice (2.5×10^4 cells per well in flat bottom tissue culture microtiter plates) were incubated in 100 μL RPMI medium containing 10% FCS, 100 U/mL penicillin, 100 μg/mL streptomycin (Gibco BRL, Basel Switzerland), 50 μM 2-mercaptoethanol (Fluka, Buchs, Switzerland), WEHI-3 conditioned medium (7.5% v/v) and L929 conditioned medium (3% v/v) as a source of growth factors and serially diluted compounds. Seven three-fold dilution steps in duplicates per test compounds were performed. After four days of incubation 1 μCi ^3H-thymidine was added. Cells were harvested after an additional five-hour incubation period, and incorporated ^3H-thymidine was determined according to standard procedures. Conditioned media were prepared as follows. WEHI-3 cells (ATCC TIB68) and L929 cells (ATCC CCL 1) were grown in RPMI medium until confluence for 4 days and one week, respectively. Cells were harvested, resuspended in the same culture flasks in medium C containing 1% FCS (Schreier and Tess 1981) for WEHI-3 cells and RPMI medium for L929 cells and incubated for 2 days (WEHI-3) or one week (L929). The supernatant was collected, filtered through 0.2 μm and stored in aliquots at −80° C. Cultures without test compounds and without WEHI-3 and L929 supernatants were used as low control values. Low control values were subtracted from all values. […]

Cc1cccc2c(C3=C(c4nc(N5CCNC6(CC6)C5)cc5ccccc45)C(=O)N(COP(=O)(O)O)C3=O)c[nH]c12.O.O.O [trihydrate of example 1, phosphoric acid mono-[3-[3-(4,7-diaza-spiro[2.5]oct-7-yl)-isoquinolin-1-yl]-4-(7-methyl-1H-indol-3-yl)-2,5-dioxo-2,5-dihydro-pyrrol-1-ylmethyl]ester, trihydrate]
relative thermodynamic stability of hydrate forms [1]: thermodynamically more stable than the monohydrate

Cc1cccc2c(C3=C(c4nc(N5CCNC6(CC6)C5)cc5ccccc45)C(=O)N(COP(=O)(O)O)C3=O)c[nH]c12 [Example 1, Phosphoric acid mono-[3-[3-(4,7-diaza-spiro[2.5]oct-7-yl)-isoquinolin-1-yl]-4-(7-methyl-1H-indol-3-yl)-2,5-dioxo-2,5-dihydro-pyrrol-1-ylmethyl]ester]
conversion of prodrug into parent compound in blood [2]: effective and favorable conversion into a parent compound
Purity ([3]; Amorphous, 50 ° C.): 95.8%
Purity ([3]; Amorphous, 80 ° C.): 89.7%
Initial Purity ([3]; Amorphous): 98.5%
Purity ([3]; Crystalline monohydrate, 50 ° C.): 100%
Purity ([3]; Crystalline monohydrate, 80 ° C.): 100%
Initial Purity ([3]; Crystalline monohydrate): 100%
Purity of example 1 in % ([4]; 2 weeks 50° C.): 95.57%
Sum of related. Substances in area % ([4]; 2 weeks 50° C.): 4.52 area %
Purity of example 1 in % ([4]; 2 weeks 50° C./75% RH): 96.20%
Sum of related. Substances in area % ([4]; 2 weeks 50° C./75% RH): 3.66 area %
Purity of example 1 in % ([4]; initial): 98.06%
Sum of related. Substances in area % ([4]; initial): 1.64 area %
solubility ([5]; Fasted state simulated intestinal fluid (FaSSIF) pH 6.5, room temperature): 100 µg/mL (≈ 174 µM)
solubility ([5]; Fed state simulated intestinal fluid (FeSSIF) pH 5.8, room temperature): 130 µg/mL (≈ 227 µM)
solubility ([5]; Simulated gastric fluid (SGF) pH 2, room temperature): 40 µg/mL (≈ 69.7 µM)
Final pH ([5]; FaSSIF pH 6.5): 6.59
Final pH ([5]; FeSSIF pH 5.8): 6.05
Final pH ([5]; SGF pH 2): 2.22
IC50 [6]: 6740 ± 1120 nM

Cc1cccc2c(C3=C(c4nc(N5CCNC6(CC6)C5)cc5ccccc45)C(=O)NC3=O)c[nH]c12 [Example 3, 3-[3-(4,7-diaza-spiro[2.5]oct-7-yl)-isoquinolin-1-yl]-4-(7-methyl-1H-indol-3-yl)-pyrrole-2,5-dione]
Final pH ([5]; Acetate Salt, FaSSIF pH 6.5): 3.97
Final pH ([5]; Acetate Salt, FeSSIF pH 5.8): 6.5
Final pH ([5]; Acetate Salt, SGF pH 2): 5.45
solubility ([5]; fasted state simulated intestinal fluid (FaSSIF), Acetate Salt, FaSSIF pH 6.5): 50 µg/mL
solubility ([5]; fed state simulated intestinal fluid (FeSSIF), Acetate Salt, FeSSIF pH 5.8): 550 µg/mL
solubility ([5]; simulated gastric fluid (SGF), simulated gastric fluid, Acetate Salt, SGF pH 2): 150 µg/mL
IC50 [6]: 1670 ± 256 nM
